The source of these data is patent publication US7671050B2, “Triazolophthalazines” (NYCOMED GmbH, priority 2005, dated 2010).

Series [1] relates to HUVEC monolayers. Briefly: Inhibition of thrombin-stimulated macromolecule (HRP) permeability of HUVEC monolayers. It counts as cell-based, human. The conditions noted are these: Homo sapiens, 1 h; HUVEC on Transwells, 1 μM RP73401, 10 μM Motapizone, 1 mM SNP or 100 nM ANP, 1 U/ml thrombin, HRP passage after 60 min; read-out: Inhibition of SNP- or ANP-induced permeability, -log IC50 (converted). On the procedure: The procedure to measure macromolecule permeability of endothelial cell monolayers followed the method described by Langeler & van Hinsbergh (1988) with modifications. Human umbilical vein endothelial cells were isolated from umbilical cords according to standard procedures (Jaffe et al. 1973) and cultured in endothelial cell basal medium (EBM) supplemented with 2% FCS, 0.5 ng/ml VEGF, 10 ng/ml bFGF, 5 ng/ml EGF, 20 ng/ml Long R3 IGF-1, 0.2 μg/ml hydrocortisone, 1 μg/ml ascorbic acid, 22.5 μg/ml heparin, 50 μg/ml gentamicin, 50 ng/ml amphotericin B (EGM2 purchased from Promocell GmbH, Heidelberg, Germany). At confluency, cells were trypsinized and replated at 73000 cells per well on 3 μm polycarbonate filter Transwell inserts (Costar GmbH, Bodenheim, Germany) precoated with 10 μg cm^2−1 Fibronectin (Sigma, Taufkirchen, Germany). HUVECs were cultured in EGM2 (100 μl in the upper wells and 600 μl in the lower wells) over four days prior the experiments and medium was changed every other day. At the day of the experiment culture medium was replaced by M199 with 1% human serum albumin. Endothelial cells were preincubated with cyclic nucleotide modifiers (the selective PDE3 inhibitor motapizone, the selective PDE4 inhibitor RP73401, the cGMP generators ANP or SNP and PDE2 inhibitors) for 15 min. HUVECs were then stimulated with Thrombin (1 U ml^−1) (Sigma, Taufkichen, Germany) and horsh radish peroxidase (5 μg/ml) (Sigma, Taufkirchen, Germany) as the macromolecule marker protein was added to the upper wells. Following 1 h incubation time Transwells were removed and the activity of horsh radish peroxidase that penetrated the endothelial cell monolayer was measured in the lower wells with the 3,3′,5,5′-tetramethylbenzidine liquid substrate system from Sigma (Taufkirchen, Germany).
In parallel, compounds according to the invention can inhibit Thrombin-induced permeability of HUVEC monolayers for horsh radish peroxidase (HRP) as a macromolecule marker. […] The concentration-dependent inhibition of HRP permeability at different concentrations was assessed from the percent inhibition in the presence and absence of the PDE2 inhibitors and in the presence of 1 μM RP73401, 10 μM Motapizone and 100 nM ANP.
HUVEC cells on 3 μm polycarbonate filters (Transwells) were preincubated with 1 μM RP73401 (to block PDE4) and 10 μM Motapizone (to block PDE3), 1 mM SNP or 100 nM ANP and test sample over 15 min and then stimulated with 1 U/ml thrombin. HRP passage into the lower wells was assessed after 60 min.

The structures appear in SMILES notation.

Compound `CCOc1ccc(Nc2nn3c(-c4ccc(OC)cc4)nnc3c3ccccc23)cc1OCC` [Example 29, (3,4-Diethoxyphenyl)-[3-(4-methoxyphenyl)-[1,2,4]triazolo[3,4-a]phthalazin-6-yl]-amine] registered a melting point of 242.5 °C. The IC50 in series [1] was 7.94 to 316 nM.

In turn, `COc1ccc(-c2nnc3c4ccccc4c(Nc4ccc(OC(F)F)cc4)nn23)cc1` [Example 30, [4-(1,1-Difluoromethoxy)-phenyl]-[3-(4-methoxyphenyl)-[1,2,4]triazolo[3,4-a]phthalazin-6-yl]-amine] had a melting point of 294 °C. Besides, the concentration for half-maximal inhibition (IC50) in series [1] was 7.94 to 316 nM.

Consider `c1ccc(Oc2ccc(-c3nnc4c5ccccc5c(Nc5ccc(N6CCOCC6)cc5)nn34)cc2)cc1` [Example 17, (4-Morpholin-4-yl-phenyl)-[3-(4-phenoxyphenyl)-[1,2,4]triazolo[3,4-a]phthalazin-6-yl]-amine], for which the melting point came to 306 °C. Also, the IC50 in series [1] is 7.94 to 316 nM.

`COc1ccc(-c2nnc3c4ccccc4c(Nc4ccc(OC(F)(F)F)cc4)nn23)cc1` [Example 14, [3-(4-Methoxyphenyl)-[1,2,4]triazolo[3,4-a]phthalazin-6-yl]-(4-trifluoromethoxyphenyl)-amine] yielded a melting point of 300 °C. Moreover, the IC50 in series [1] was 7.94 to 316 nM.

Broadly, the IC50 is the midpoint of a concentration-inhibition curve. The term melting point denotes the temperature of the solid-liquid transition.
